From patent publication US20070134261A1, “Effectors of innate immunity” (priority 2001, published 2007)
Several values for one entry are separate records, joined by “and”; a condition that tells them apart may be missing. Identical values can stand only once.

Test system: human A549 epithelial cells
Test: Resgen Human cDNA arrays (PRHU03-S3) of A549 cells treated with peptide (Tables 21-26)
Conditions: 50 μg/ml, 4 h

## CC[C@H](C)[C@H](N)C(=O)N[C@@H](CC(C)C)C(=O)N1CCC[C@H]1C(=O)N[C@@H](Cc1c[nH]c2ccccc12)C(=O)N[C@@H](CCCCN)C(=O)N[C@@H](Cc1c[nH]c2ccccc12)C(=O)N1CCC[C@H]1C(=O)N[C@@H](Cc1c[nH]c2ccccc12)C(=O)N[C@@H](Cc1c[nH]c2ccccc12)C(=O)N1CCC[C@H]1C(=O)N[C@@H](Cc1c[nH]c2ccccc12)C(=O)N[C@@H](CCCNC(=N)N)C(=O)N[C@@H](CCCNC(=N)N)C(N)=O [SEQ ID NO: 2]
AA025276
  Ratio Peptide:Unstimulated, catenin (cadherin-associated protein), delta 1: 1.2
AA037229
  Ratio Peptide:Unstimulated, integrin, beta 3: 2.7
AA037376
  Ratio Peptide:Unstimulated, Epstein-Barr virus induced polynucleotide 2: 1.6
AA043347
  Ratio Peptide:Unstimulated, disintegrin and metalloproteinase domain 10: 1.5
AA043537
  Ratio Peptide:Unstimulated, MAP kinase kinase kinase kinase 3: 0.45
AA045326
  Ratio Peptide:Unstimulated, protein tyrosine phosphatase, receptor type, J: 3.6
AA053674
  Ratio Peptide:Unstimulated, MAP kinase kinase kinase 12: 0.20
AA055979
  Ratio Peptide:Unstimulated, integrin, alpha 7: 0.57
AA076350
  Ratio Peptide:Unstimulated, leukocyte immunoglobulin-like receptor, subfamily B (with TM and ITIM domains), member 4: 0.75
AA086038
  Ratio Peptide:Unstimulated, phospholipase A2 receptor 1: 2.8
AA102526
  Ratio Peptide:Unstimulated, IL-8: 3.6
AA136983
  Ratio Peptide:Unstimulated, cadherin 11, type 2, OB-cadherin (osteoblast): 0.23
AA150416, listed as ID 2
  Ratio Peptide:Unstimulated, TNF R superfamily, member 1B: 18 and 17.09
AA157286
  Ratio Peptide:Unstimulated, MAP kinase 9: 0.57
AA173454
  Ratio Peptide:Unstimulated, macrophage stimulating 1 R: 1.7
AA190627
  Ratio Peptide:Unstimulated, killer cell lectin-like receptor subfamily C, member 2: 9.7
AA194983, listed as ID 2
  Ratio Peptide:Unstimulated, TNF R superfamily, member 11b: 5.3 and 5.29
AA279188
  Ratio Peptide:Unstimulated, disintegrin and metalloproteinase domain 8: 3.1
AA291323
  Ratio Peptide:Unstimulated, BCL2-interacting killer (apoptosis-inducing): 1.9
AA398492
  Ratio Peptide:Unstimulated, disintegrin-like and metalloprotease with thrombosondin type 1 motif, 3: 0.32
AA402447
  Ratio Peptide:Unstimulated, MAP kinase kinase kinase 4: 0.37
AA406362
  Ratio Peptide:Unstimulated, prostaglandin E receptor 3 (subtype EP3): 4.1
AA417711
  Ratio Peptide:Unstimulated, MAP kinase kinase kinase kinase 4: 0.96
AA418293
  Ratio Peptide:Unstimulated, MAP kinase 8 interacting protein 2: 0.07
AA424695
  Ratio Peptide:Unstimulated, integrin, alpha 3 (antigen CD49C, alpha 3 subunit of VLA-3 receptor): 0.8
AA425217
  Ratio Peptide:Unstimulated, cadherin 3, type 1, P-cadherin (placental): 0.43
AA425451
  Ratio Peptide:Unstimulated, integrin, alpha E: 180
AA425767
  Ratio Peptide:Unstimulated, formyl peptide receptor 1: 3.1
AA425826
  Ratio Peptide:Unstimulated, MAP kinase kinase 2: 1.20
AA427521
  Ratio Peptide:Unstimulated, cytokine inducible SH2-containing protein: 33
AA434397
  Ratio Peptide:Unstimulated, integrin, beta 5: 0.32
AA434420
  Ratio Peptide:Unstimulated, protein tyrosine phosphatase, non-receptor type 9: 3.5
AA446259
  Ratio Peptide:Unstimulated, protein tyrosine phosphatase, non-receptor type 12: 2.3
AA448468
  Ratio Peptide:Unstimulated, caspase 8, apoptosis-related cysteine protease: 2.2
AA449831
  Ratio Peptide:Unstimulated, growth factor receptor-bound protein 2: 2.2
AA450009
  Ratio Peptide:Unstimulated, endothelin receptor type A: 12
AA450324
  Ratio Peptide:Unstimulated, integrin, alpha 1: 0.41
AA454652
  Ratio Peptide:Unstimulated, Human proteinase activated R-2: 6.1
AA454657
  Ratio Peptide:Unstimulated, IL-11 R alpha: 2.4
AA458507
  Ratio Peptide:Unstimulated, CSF 3 R: 1.9
AA460959
  Ratio Peptide:Unstimulated, integrin, alpha 10: 0.33
AA460969
  Ratio Peptide:Unstimulated, MAP kinase kinase kinase 7: 0.97
AA463248
  Ratio Peptide:Unstimulated, NK cell R: 2.5
AA463257
  Ratio Peptide:Unstimulated, integrin, alpha 2 (CD49B, alpha 2 subunit of VLA-2 receptor): 0.9
AA464526
  Ratio Peptide:Unstimulated, IL-1 receptor, type I: 0.34
AA464542
  Ratio Peptide:Unstimulated, protein tyrosine phosphatase, receptor type, E: 0.23
AA464590
  Ratio Peptide:Unstimulated, protein tyrosine phosphatase, receptor type, N polypeptide 2: 0.02
AA476461
  Ratio Peptide:Unstimulated, protein tyrosine phosphatase, receptor-type, Z polypeptide 1: 0.63
AA479188
  Ratio Peptide:Unstimulated, intercellular adhesion molecule 3: 0.12
AA481547
  Ratio Peptide:Unstimulated, protein tyrosine phosphatase, receptor type, C-associated protein: 5.1
AA482489
  Ratio Peptide:Unstimulated, IL-18 receptor 1: 0.50
AA485226
  Ratio Peptide:Unstimulated, vitamin D R: 2.5
AA485668
  Ratio Peptide:Unstimulated, integrin, beta 4: 0.8
AA486393, listed as ID 2
  Ratio Peptide:Unstimulated, IL-10 R beta: 2.5 and 2.51
AA487575
  Ratio Peptide:Unstimulated, calcium and integrin binding protein: 2.8
AA488650
  Ratio Peptide:Unstimulated, TRAF and TNF receptor-associated protein: 0.75
AA489234
  Ratio Peptide:Unstimulated, cytokine-inducible kinase: 0.41
AA495985
  Ratio Peptide:Unstimulated, small inducible cytokine subfamily A (Cys—Cys), member 18: 0.32
AA496348
  Ratio Peptide:Unstimulated, programmed cell death 8 (apoptosis-inducing factor): 1.07
AA497002
  Ratio Peptide:Unstimulated, melanoma adhesion molecule: 7.9
AA504259
  Ratio Peptide:Unstimulated, TNF receptor-associated factor 3: 0.15
AA521316
  Ratio Peptide:Unstimulated, apoptosis-related protein PNAS-1: 2.2
AA521362
  Ratio Peptide:Unstimulated, complement component receptor 2: 26
AA629897
  Ratio Peptide:Unstimulated, laminin R 1 (67 kD, ribosomal protein SA): 0.4
AA644448
  Ratio Peptide:Unstimulated, protein tyrosine phosphatase, receptor type, U: 6.1
AA666269
  Ratio Peptide:Unstimulated, integrin, beta 3: 2.6
AA668470
  Ratio Peptide:Unstimulated, regulator of G-protein signaling 5: 0.27
AA670107
  Ratio Peptide:Unstimulated, T cell R delta locus: 2.7
AA677522
  Ratio Peptide:Unstimulated, small inducible cytokine A3 (homologous to mouse Mip-1a): 1.79
AA679180
  Ratio Peptide:Unstimulated, protein tyrosine phosphatase, non-receptor type 13: 1.7
AA682684
  Ratio Peptide:Unstimulated, protein tyrosine phosphatase, non-receptor type 3: 1.0
AA704511
  Ratio Peptide:Unstimulated, v-SNARE R: 11
AA863086
  Ratio Peptide:Unstimulated, adenosine A3 R: 2.0
AA865557
  Ratio Peptide:Unstimulated, integrin, alpha 9: 0.86
AA878880
  Ratio Peptide:Unstimulated, small inducible cytokine subfamily B (Cys-X-Cys), member 10: 0.50
AA894687
  Ratio Peptide:Unstimulated, interleukin enhancer binding factor 2: 1.3
AA903183
  Ratio Peptide:Unstimulated, IL-2 receptor, alpha: 0.41
AA916836
  Ratio Peptide:Unstimulated, small inducible cytokine subfamily A (Cys—Cys), member 23: 0.38
AA927710, listed as ID 2
  Ratio Peptide:Unstimulated, CD2: 2.6 and 2.62
AA972293
  Ratio Peptide:Unstimulated, prostaglandin E receptor 1 (subtype EP1): 7.2
AA977194
  Ratio Peptide:Unstimulated, IL-12 receptor, beta 2: 0.67
AA995560
  Ratio Peptide:Unstimulated, protein tyrosine phosphatase, non-receptor type 11: 2.9
AI017019
  Ratio Peptide:Unstimulated, integrin beta 4 binding protein: 1.7
AI057229
  Ratio Peptide:Unstimulated, VIP R 2: 3.1
AI131555
  Ratio Peptide:Unstimulated, orphan seven-transmembrane receptor, chemokine related: 1.06
AI167887, listed as ID 2
  Ratio Peptide:Unstimulated, IL-1 R antagonist homolog 1: 3086 and 3085.96
AI202738
  Ratio Peptide:Unstimulated, MAP kinase 8 interacting protein 2: 0.16
AI205675
  Ratio Peptide:Unstimulated, disintegrin and metalloproteinase domain 18: 0.40
AI264190
  Ratio Peptide:Unstimulated, regulator of G-protein signaling 20: 48
